Tests used:
BACE1 [1] = target: T1, BACE1 (Homo sapiens, UniProt P56817); assay: In Vitro Enzymatic BACE FRET (Fluorescence Resonance Energy Transfer) Assay; type: biochemical; conditions: read-out: BACE1 FRET assay
Procedure, shortened: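 Acetate buffer at pH 4.2 with 10% DMSO and 100 uM genapol hosts the enzymatic reaction, initiated by 50 nM FRET substrate and allowed to proceed one hour. Tris quench to neutral pH precedes the fluorescence measurement.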

BACE1 [2] = target: T1, BACE1; assay: In Vitro BACE Cell-based Assay (HEK cell assay): Aβ40 in conditioned medium of cells stably expressing Amyloid Precursor Protein, sandwich ELISA; conditions: read-out: HEK cell assay
Procedure, shortened: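 APP-expressing cells were cultured 24 h in DMEM/10% FBS, then treated 24 h with compounds in 10-point dose response (top 100 μM or 10 μM; 0.1% DMSO final). Secreted Aβ40 was quantified by sandwich ELISA (pAb40 capture, biotinylated 6E10 detection, Europium TRF); IC50 from percent inhibition versus concentration.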

[3] = system: amyloid beta peptide (A-beta) in cerebrospinal fluid and brain; assay: In Vivo Inhibition of Beta-Secretase: reduction of A-beta levels in CSF and brain; conditions: after 4 hrs, mouse or rat
Description: Several animal models, including mouse, rat, dog, and monkey, may be used to screen for inhibition of beta-secretase activity in vivo following administration of a test compound sample. Animals used in this invention can be wild type, transgenic, or gene knockout animals. […] A separate group of animals receive 2% hydroxypropyl methylcellulose, 1% Tween80 alone, containing no test compound, and serve as a vehicle-control group. At the end of the test period, animals are sacrificed and brain tissues, plasma or cerebrospinal fluid are collected. […] Homogenates are centrifuged at 355,000 g, 4° C. for 30 minutes. CSF or brain supernatants are then analyzed for the presence of A-beta peptide by specific sandwich ELISA assays based on ECL (Electrochemiluminescence) technology. For example, rat Abeta40 is measured using biotinylated-4G8 (Signet) as a capture antibody and Fab40 (an in-house antibody specific to the C-terminal of Abeta40) as a detection antibody.

T1 sequence (P56817 46-501, species assumed): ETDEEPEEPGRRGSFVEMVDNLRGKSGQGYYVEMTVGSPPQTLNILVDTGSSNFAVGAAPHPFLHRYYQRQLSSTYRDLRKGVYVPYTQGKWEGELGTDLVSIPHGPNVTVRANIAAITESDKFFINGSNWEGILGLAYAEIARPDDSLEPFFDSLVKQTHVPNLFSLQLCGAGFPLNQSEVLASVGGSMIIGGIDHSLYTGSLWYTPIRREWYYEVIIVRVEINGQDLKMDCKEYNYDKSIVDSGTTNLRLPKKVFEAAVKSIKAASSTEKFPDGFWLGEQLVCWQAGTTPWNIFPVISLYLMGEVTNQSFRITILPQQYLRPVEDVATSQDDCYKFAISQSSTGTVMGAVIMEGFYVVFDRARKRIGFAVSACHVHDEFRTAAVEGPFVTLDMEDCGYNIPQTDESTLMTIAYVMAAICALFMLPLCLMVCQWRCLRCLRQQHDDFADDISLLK

| Structure (SMILES) | IC50 (BACE1 [1]) [µM] | IC50 (BACE1 [2]; HEK cells) [µM] | percent reduction in CSF A-beta levels ([3]; 10 mpk) [%] | percent reduction in brain A-beta levels ([3]; 10 mpk) [%] | other results |
| --- | --- | --- | --- | --- | --- |
| NC1=N[C@@]2(CO1)c1cc(-c3cncnc3)ccc1Oc1cc(F)c(C3=CCOCC3)cc12 [Example 292, (S)-2′-(3,6-dihydro-2H-pyran-4-yl)-3′-fluoro-7′-(pyrimidin-5-yl)-5H-spiro[oxazole-4,9′-xanthen]-2-amine] |  |  | 57 | 29 | IC50 (BACE1 [1]; Table IV, class symbols): < 0.1 µM; IC50 (BACE1 [2]; Table IV, class symbols): < 0.1 µM |
| CC(C)(C)COc1cnc2c(c1)[C@]1(COC(N)=N1)c1cc(-c3cccnc3)ccc1O2 [Example 744, (5S)-3-(2,2-dimethylpropoxy)-7-(3-pyridinyl)spiro[chromeno[2,3-b]pyridine-5,4′-[1,3]oxazol]-2′-amine] |  |  | 37 | 26 |  |
| NC1=N[C@@]2(CO1)c1cc(-c3cc(Cl)ccc3F)ccc1Oc1ncc(C3=CCOCC3)cc12 [Example 296, (S)-7-(5-chloro-2-fluorophenyl)-3-(3,6-dihydro-2H-pyran-4-yl)-5′H-spiro[chromeno[2,3-b]pyridine-5,4′-oxazol]-2′-amine] |  |  | 61 | 40 | IC50 (BACE1 [1]; Table IV, class symbols): < 0.1 µM; IC50 (BACE1 [2]; Table IV, class symbols): < 0.1 µM |
| CC(C)(C)COc1ccc2c(c1)[C@]1(COC(N)=N1)c1cc(-c3cccnc3)cnc1O2 [Example 92, (5R)-7-(2,2-dimethylpropoxy)-3-(3-pyridinyl)spiro[chromeno[2,3-b]pyridine-5,4′-[1,3]oxazol]-2′-amine] |  |  |  |  | IC50 (BACE1 [1]; Table II): < 0.1 µM; IC50 (BACE1 [2]; Table II, Aβ40, 24 h incubation): < 0.1 µM; percent reduction in CSF A-beta levels ([3]; 30 mpk): 62%; percent reduction in brain A-beta levels ([3]; 30 mpk): 49% |
| COC(C)(C)C#Cc1cc(F)c2c(c1)[C@]1(COC(N)=N1)c1cc(-c3cncnc3)ccc1O2 [Example 673, (4S)-4′-fluoro-2′-(3-methoxy-3-methyl-1-butyn-1-yl)-7′-(5-pyrimidinyl)spiro[1,3-oxazole-4,9′-xanthen]-2-amine] | < 0.1 |  |  |  | IC50 (BACE1 [2]): < 0.1 µM; percent reduction in CSF A-beta levels ([3]; 30 mpk): 81%; percent reduction in brain A-beta levels ([3]; 30 mpk): 63% |
| CC(C)(C)COc1cnc2c(c1)[C@]1(COC(N)=N1)c1cc(-c3ccccc3)ccc1O2 [compound 469] | < 0.1 | 0.1 to 1 |  |  |  |
| CC(C)(C)COc1ccc2c(c1)[C@@]1(COC(N)=N1)c1cc(C(=O)N3CCCC3)ccc1O2 [218a] |  |  |  |  | IC50 (BACE1 [1]; Table III, IC50's in uM ranges): 0.1 to 1 µM; IC50 (BACE1 [2]; Table III, IC50's in uM ranges): 1 to 5 µM |
| CCOC(=O)/C=C/c1ccc2c(c1)[C@]1(COC(N)=N1)c1cc(-c3cncnc3)ccc1O2 [compound 825] |  |  |  |  | IC50 (BACE1 [1]; Table IV, class symbols): 0.1 to 1 µM; IC50 (BACE1 [2]; Table IV, class symbols): 0.1 to 1 µM |

Continued, in another order:

| IC50 (BACE1 [1]) [µM] | IC50 (BACE1 [2]; HEK cells) [µM] | Structure (SMILES) | percent reduction in CSF A-beta levels ([3]; 10 mpk) [%] | percent reduction in brain A-beta levels ([3]; 10 mpk) [%] | other results |
| --- | --- | --- | --- | --- | --- |
| < 0.1 |  | NC1=N[C@]2(CO1)c1cc(C#CC3(O)CCC3)ccc1Oc1ccc(-c3cncnc3)cc12 [Example 956, 1-(((4R)-2-amino-7′-(5-pyrimidinyl)spiro[1,3-oxazole-4,9′-xanthen]-2′-yl)ethynyl)cyclobutanol] |  |  | IC50 (BACE1 [2]): < 0.1 µM; percent reduction in CSF A-beta levels ([3]; 30 mpk): 25%; percent reduction in brain A-beta levels ([3]; 30 mpk): 8% |
| < 0.1 | < 0.1 | Cc1cnc(F)c(-c2ccc3c(c2)[C@@]2(COC(N)=N2)c2cc(C4=CCOCC4)ncc2O3)c1 [Example 286, (S)-3-(3,6-dihydro-2H-pyran-4-yl)-7-(2-fluoro-5-methylpyridin-3-yl)-5′H-spiro[chromeno[2,3-c]pyridine-5,4′-oxazol]-2′-amine] | 73 | 57 |  |
| < 0.1 | < 0.1 | CC1(C)CN(c2ccc3c(c2)[C@]2(COC(N)=N2)c2cc(-c4cccnc4F)ccc2O3)CCO1 [Example 290, (S)-2′-(2,2-dimethylmorpholino)-7′-(2-fluoropyridin-3-yl)-5H-spiro[oxazole-4,9′-xanthen]-2-amine] | 63 | 33 |  |
| 0.1 to 1 | 1 to 5 | CC1(C)CN(c2cc(F)c3c(c2)[C@@]2(COC(N)=N2)c2cc(-c4cncnc4)ccc2O3)CCO1 [compound 506] |  |  |  |
